Measured values published in patent US9802941B2, “Compounds and methods for inhibiting histone demethylases” (Gilead Sciences, Inc., priority 2014, dated 2017).
pIC50: −log10 of the molar value. Read-outs that look alike come from different tables or passages of the source.

Columns and labels:
Assay type in all cases: biochemical
[1] = target: T1, KDM4C (JMJD2C) (Homo sapiens, UniProt Q9H3R0); assay: Histone lysine demethylase AlphaLISA assay, KDM4C
T1 construct: KDM4C; BRIC, Denmark; 1-349; E. coli; host or cells: E. coli
T1 sequence (Q9H3R0 1-349): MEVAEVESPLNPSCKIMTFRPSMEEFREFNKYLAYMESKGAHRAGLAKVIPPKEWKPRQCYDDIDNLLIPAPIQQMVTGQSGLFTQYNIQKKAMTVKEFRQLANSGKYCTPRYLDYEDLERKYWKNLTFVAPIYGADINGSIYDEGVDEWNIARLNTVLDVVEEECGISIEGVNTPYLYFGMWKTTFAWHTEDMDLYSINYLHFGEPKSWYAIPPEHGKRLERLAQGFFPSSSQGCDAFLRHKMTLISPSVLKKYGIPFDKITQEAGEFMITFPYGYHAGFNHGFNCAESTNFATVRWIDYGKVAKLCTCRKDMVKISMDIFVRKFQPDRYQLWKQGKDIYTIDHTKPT
Method: (§1) The compounds of the application, or a pharmaceutically acceptable salt, or solvate, or prodrug thereof, are tested in an in vitro AlphaLISA assay. Enzymes are dissolved in enzyme buffer and incubated before they are added to DMSO solutions of compounds of the application, or a pharmaceutically acceptable salt, or solvate, or prodrug thereof, in enzyme buffer. The reaction mixture is then incubated for an additional period of time before substrate solution is added and then the resulting mixture again incubated. Acceptor beads and suspended Epigenetic Buffer from stock are added and the suspension is again incubated before a suspension of streptavidin donor beads in Epigenetic Buffer is added. After an additional period of incubation, the plates are read.
(§2) The ability of compounds of the application to inhibit the histone lysine demethylase activity in vitro of different enzymes was determined.
(§3) The reaction mixture was incubated for another 10 minutes before 5 μL of substrate solution was added and the resulting mixture was then incubated at room temperature. […] After incubation at room temperature in the dark, the plates were read.
(§4) Enzyme Buffer: 50 mM Hepes (pH 7.4-8.0), 0.003-0.01% Tween-20, 0.1% BSA; 5 μM (NH4)2Fe(SO4)2.

[2] = target: T2, KDM2B (FBXL10) (Homo sapiens, UniProt Q8NHM5); assay: Histone lysine demethylase AlphaLISA assay, KDM2B; conditions: AlphaLISA, in vitro; read-out: HDME Inhibition KDM2B
T2 construct: KDM2B; BPS,; 1-650; Bac; purchased BPS Bioscience, US; host or cells: baculovirus system
T2 sequence (Q8NHM5 1-650): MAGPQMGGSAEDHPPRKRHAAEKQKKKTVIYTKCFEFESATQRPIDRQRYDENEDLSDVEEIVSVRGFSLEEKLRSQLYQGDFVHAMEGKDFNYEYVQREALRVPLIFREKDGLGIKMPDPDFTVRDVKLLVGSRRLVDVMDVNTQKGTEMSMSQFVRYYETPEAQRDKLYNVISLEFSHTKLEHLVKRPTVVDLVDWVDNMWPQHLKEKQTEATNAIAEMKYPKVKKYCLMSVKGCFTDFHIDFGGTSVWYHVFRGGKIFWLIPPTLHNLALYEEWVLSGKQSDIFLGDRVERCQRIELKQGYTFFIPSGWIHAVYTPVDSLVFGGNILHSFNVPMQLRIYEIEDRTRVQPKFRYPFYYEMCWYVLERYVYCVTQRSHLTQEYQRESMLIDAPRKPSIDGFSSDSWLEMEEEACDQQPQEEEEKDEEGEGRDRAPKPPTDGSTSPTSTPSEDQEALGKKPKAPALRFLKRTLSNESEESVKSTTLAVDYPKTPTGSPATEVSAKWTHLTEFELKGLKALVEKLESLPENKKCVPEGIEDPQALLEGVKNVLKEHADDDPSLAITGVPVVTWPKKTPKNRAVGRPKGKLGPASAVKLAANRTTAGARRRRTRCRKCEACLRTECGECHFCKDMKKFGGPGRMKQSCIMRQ
Method: as §1, §2, §3, §4

[3] = target: T3, PHF8 (KDM7) (Homo sapiens, UniProt Q9UPP1); assay: Histone lysine demethylase AlphaLISA assay, PHF8
T3 construct: KDM7 (PHF8); BRIC; 1-1322; Bac
Method: as §1, §2, §3, §4

[4] = target: T4, KDM5B (PLU-1) (Homo sapiens, UniProt Q9UGL1); assay: Histone lysine demethylase AlphaLISA assay, KDM5B
T4 construct: BRIC; 1-809; E. coli; host or cells: E. coli
T4 sequence (Q9UGL1 1-809): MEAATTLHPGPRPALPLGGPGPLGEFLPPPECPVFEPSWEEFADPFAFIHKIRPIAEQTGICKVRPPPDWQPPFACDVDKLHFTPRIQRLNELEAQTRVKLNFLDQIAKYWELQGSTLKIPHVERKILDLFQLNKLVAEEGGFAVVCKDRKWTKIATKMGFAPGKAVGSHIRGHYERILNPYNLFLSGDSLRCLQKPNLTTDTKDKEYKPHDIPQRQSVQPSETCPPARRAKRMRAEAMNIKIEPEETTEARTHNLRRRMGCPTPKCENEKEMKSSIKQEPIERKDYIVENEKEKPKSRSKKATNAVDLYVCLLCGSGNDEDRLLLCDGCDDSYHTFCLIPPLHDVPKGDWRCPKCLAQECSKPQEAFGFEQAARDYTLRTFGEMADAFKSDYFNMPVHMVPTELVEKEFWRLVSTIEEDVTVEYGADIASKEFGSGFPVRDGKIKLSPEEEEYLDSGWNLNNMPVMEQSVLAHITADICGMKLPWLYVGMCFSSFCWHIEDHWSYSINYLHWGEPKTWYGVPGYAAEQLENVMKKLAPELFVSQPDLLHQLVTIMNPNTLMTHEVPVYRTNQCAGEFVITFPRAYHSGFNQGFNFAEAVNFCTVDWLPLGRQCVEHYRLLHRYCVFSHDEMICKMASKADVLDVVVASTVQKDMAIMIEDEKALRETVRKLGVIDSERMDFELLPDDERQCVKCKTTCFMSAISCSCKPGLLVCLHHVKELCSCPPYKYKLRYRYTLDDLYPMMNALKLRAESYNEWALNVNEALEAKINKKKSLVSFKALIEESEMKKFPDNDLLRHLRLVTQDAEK
Method: as §1, §2, §3, §4

[5] = AlphaLISA assay, read-out: HDME Inhibition KDM4C (IC50)
[6] = AlphaLISA, in vitro, read-out: HDME Inhibition KDM4C
[7] = AlphaLISA, in vitro, read-out: HDME Inhibition PHF8
[8] = AlphaLISA assay, read-out: HDME Inhibition KDM5B (IC50)
[9] = AlphaLISA, in vitro, read-out: HDME Inhibition KDM5B
[10] = AlphaLISA assay, read-out: HDME Inhibition PHF8 (IC50)

T3 sequence (Q9UPP1 37-440 limits assumed): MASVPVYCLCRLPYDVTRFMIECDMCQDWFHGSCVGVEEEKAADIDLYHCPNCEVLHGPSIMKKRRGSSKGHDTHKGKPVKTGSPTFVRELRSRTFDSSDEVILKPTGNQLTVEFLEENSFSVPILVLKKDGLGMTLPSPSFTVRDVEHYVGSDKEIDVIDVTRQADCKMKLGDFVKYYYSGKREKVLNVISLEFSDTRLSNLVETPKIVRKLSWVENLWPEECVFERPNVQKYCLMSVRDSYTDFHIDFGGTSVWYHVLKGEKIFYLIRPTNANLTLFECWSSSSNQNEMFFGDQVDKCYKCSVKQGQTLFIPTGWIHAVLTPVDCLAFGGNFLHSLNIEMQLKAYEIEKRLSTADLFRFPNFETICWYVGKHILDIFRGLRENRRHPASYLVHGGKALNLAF

SMILES	pIC50 [1, 5]	pIC50 [1, 6]	pIC50 [2]	pIC50 [3, 7]	pIC50 [4, 8]	pIC50 [4, 9]	pIC50 [4]	pIC50 [3, 10]
Cc1cc(C(=O)O)cc(CNCc2nnc(C(C)(C)C)n2Cc2ccc(F)cc2)n1 [Compound 49, 2-{[({5-tert-butyl-4-[(4-fluorophenyl)methyl]-4H-1,2,4-triazol-3-yl}methyl)amino]methyl}-6-methylpyridine-4-carboxylic acid]	< 5.00	< 5.00	6.08	5.96	< 5.00	< 5.00		
Cc1cc(C(=O)O)cc(CNCc2ncc(CN(C)C)n2Cc2ccc(F)cc2)n1 [Compound 50, 2-{[({5-[(dimethylamino)methyl]-1-[(4-fluorophenyl)methyl]-1H-imidazol-2-yl}methyl)amino]methyl}-6-methylpyridine-4-carboxylic acid]	< 5.00	< 5.00	6.16	5.98	< 5.00	< 5.00		
Cc1cc(C(=O)O)cc(CNCc2nncn2CCc2cc(Cl)cc(Cl)c2)n1 [Compound 51, 2-{[({4-[2-(3,5-dichlorophenyl)ethyl]-4H-1,2,4-triazol-3-yl}methyl)amino]methyl}-6-methylpyridine-4-carboxylic acid]	< 5.00	< 5.00	5.55	5.41	< 5.00	< 5.00		
CCc1cnc(CNCc2cc(C(=O)O)cc(C)n2)n1CCc1ccccc1 [Compound 54, 2-[({[5-ethyl-1-(2-phenylethyl)-1H-imidazol-2-yl]methyl}amino)methyl]-6-methylpyridine-4-carboxylic acid]	< 5.00	< 5.00	5.94	5.93	< 5.00	< 5.00		
O=C(O)c1cc(CO)nc(CNCc2nncn2CCc2cc(Cl)cc(Cl)c2)c1 [Compound 55, 2-{[({4-[2-(3,5-dichlorophenyl)ethyl]-4H-1,2,4-triazol-3-yl}methyl)amino]methyl}-6-(hydroxymethyl)pyridine-4-carboxylic acid]	< 5.00	< 5.00	6.18	5.89			5.75	
Cc1cc(C(=O)O)cc(CNCc2nncn2CCCc2ccccc2)n1 [Compound 56]	< 5.00	< 5.00	6.32	6.05	< 5.00	< 5.00		
Cc1cc(C(=O)O)cc(CNCc2nnc(C)n2Cc2ccc(Cl)c(Cl)c2)n1 [Compound 57, 2-{[({4-[(3,4-dichlorophenyl)methyl]-5-methyl-4H-1,2,4-triazol-3-yl}methyl)amino]methyl}-6-methylpyridine-4-carboxylic acid]	< 5.00	< 5.00	5.94	5.90	< 5.00	< 5.00		
Cc1cc(C(=O)O)cc(CNCCc2nncn2Cc2ccc(C(F)(F)F)cc2)n1 [Compound 60, 2-methyl-6-({[2-(4-{[4-(trifluoromethyl)phenyl]methyl}-4H-1,2,4-triazol-3-yl)ethyl]amino}methyl)pyridine-4-carboxylic acid]	< 5.00	< 5.00	5.79	< 5.00		6.28		< 5.00
Cc1cc(C(=O)O)cc(CNCc2nccn2CCc2ccccc2)n1 [Compound 61, 2-methyl-6-[({[1-(2-phenylethyl)-1H-imidazol-2-yl]methyl}amino)methyl]pyridine-4-carboxylic acid]	< 5.00	< 5.00	5.38	5.59	< 5.00	< 5.00		
O=C(O)c1cc(CO)nc(CNCc2nncn2Cc2ccc(F)cc2)c1 [Compound 62, 2-{[({4-[(4-fluorophenyl)methyl]-4H-1,2,4-triazol-3-yl}methyl)amino]methyl}-6-(hydroxymethyl)pyridine-4-carboxylic acid]		5.13	6.61	6.51			6.64	
Cc1cc(C(=O)O)cc(CNCc2ncc(C(C)O)n2Cc2ccc(F)cc2)n1 (centres unmarked) [Compound 63, 2-{[({1-[(4-fluorophenyl)methyl]-5-(1-hydroxyethyl)-1H-imidazol-2-yl}methyl)amino]methyl}-6-methylpyridine-4-carboxylic acid]	< 5.00	< 5.00	6.48	5.85	< 5.00	< 5.00		
CCc1nnc(CNCc2cc(C(=O)O)cc(CO)n2)n1Cc1ccc(F)cc1 [Compound 64, 2-{[({5-ethyl-4-[(4-Fluorophenyl)methyl]-4H-1,2,4-triazol-3-yl}methyl)amino]methyl}-6-(hydroxymethyl)pyridine-4-carboxylic acid]	< 5.00	< 5.00	6.98	6.61	< 5.00	< 5.00		
Cc1nnc(CNCc2cc(C(=O)O)cc(CO)n2)n1CCCc1ccccc1 [Compound 65, 2-(hydroxymethyl)-6-[({[5-methyl-4-(3-phenylpropyl)-4H-1,2,4-triazol-3-yl]methyl}amino)methyl]pyridine-4-carboxylic acid]	< 5.00	< 5.00	7.47	6.00			6.82	
O=C(O)c1cc(CO)nc(CNCCc2nncn2Cc2ccc(C(F)(F)F)cc2)c1 [Compound 66, 2-(hydroxymethyl)-6-({[2-(4-{[4-(trifluoromethyl)phenyl]methyl}-4H-1,2,4-triazol-3-yl)ethyl]amino}methyl)pyridine-4-carboxylic acid]	< 5.00	< 5.00	5.24	< 5.00		6.03		< 5.00
